# Assay results published in patent US8609647B2, “Nitrogen-containing spirocyclic compounds and pharmaceutical uses thereof” (Japan Tobacco Inc., priority 2009, dated 2013).
# Target: hJAK3 kinase domain (aa781-end) (Homo sapiens (Human), UniProt P52333)
# Experiment: JAK3 activity inhibition, kinase reaction (HTRF, TK substrate-biotin)
# Procedure: JAK3 activity inhibitory effects of test compounds were evaluated by the following kinase reactions.
# In the kinase reactions, fused proteins (6His tag-fused hJAK3 kinase domain (aa781-end)) which were coexpressed in Sf21 cells and purified by Ni2+/NTA agarose were used.
# A well in which ATP was not added was set out as a blank well.
# Plates were let stand at room temperature for 10 minutes from starting reactions.
# One hour after the addition of the buffer for detection, fluorescence counts of each well were measured by a fluorescence microplate reader.
# Data were obtained by deducting the average Ratio of a blank well from Ratio of each well.
# hJAK3 kinase domain (aa781-end), sequence (P52333 781-1124 limits assumed): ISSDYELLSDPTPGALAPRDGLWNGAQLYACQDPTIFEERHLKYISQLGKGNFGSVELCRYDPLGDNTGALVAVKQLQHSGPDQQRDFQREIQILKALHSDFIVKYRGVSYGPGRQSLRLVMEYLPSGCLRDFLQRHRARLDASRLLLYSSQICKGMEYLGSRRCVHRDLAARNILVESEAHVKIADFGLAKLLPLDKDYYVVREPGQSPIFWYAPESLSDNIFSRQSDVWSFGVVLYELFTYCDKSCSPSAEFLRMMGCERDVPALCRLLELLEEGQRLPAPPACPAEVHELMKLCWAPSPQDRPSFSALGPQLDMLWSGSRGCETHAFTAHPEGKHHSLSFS
row,IC50 [nM],SMILES
1,110,N#CCC(=O)N1CCCCC12CCN(c1c(Cl)cnc3[nH]ncc13)C2 (racemic) [Compound 93]
2,550,c1ccc(CN2CCCC23CCN(c2ncnc4[nH]ccc24)C3)cc1 (racemic) [Compound 90]

row,SMILES,IC50 [nM]
1,N#CCCN1CCCC12CCN(c1ncnc3[nH]ccc13)C2 (racemic) [Compound 53],56
